The values that follow come from US11795190B2, “D-glycero-B-D-heptose 1-phosphate (HMP) conjugates and use for targeted immune modulation” (NATIONAL RESEARCH COUNCIL OF CANADA, priority 2017, dated 2023).

Assay [1] relates to human macrophage cells (THP-1). The assay is described as follows: IL-8 ELISA in THP-1 cells after digitonin-permeabilised stimulation. The assay is classed as cell-based. As to conditions: FIG. 15, higher (150 μM) concentrations, digitonin 20 min, IL-8 after 6 hours. On the procedure: FIG. 15. Stimulation of human macrophages by compounds/products according to the invention. Human macrophage cells (THP-1) were stimulated for 20 minutes in permeabilization buffer (5 μg/mL digitonin) in the presence of water, 39.8 μM of the Nod1 agonist C12-iE-DAP (which stimulates in a TIFA-independent manner), or either 30 μM or 150 μM of synthetic compound according to the invention. Treatment was removed, cells were washed, and cells were incubated for 6 hours in complete media before the IL-8 levels in culture supernatants were measured by ELISA. The results are the mean and standard error of the mean of three technical replicates. Nod1 agonist: C12-iE-DAP (20 μg/ml, 39.8 μM); JS-7: JS-7:D-glycero-β-D-manno-heptose-phosphate; JS-10: 7-O-(Aminoethyl)-D-glycero-β-D-manno-heptopyranose phosphate; JS-14: Biotin-7-O-(aminoethyl)-D-glycero-β-D-manno-heptopyranose phosphate.
For orientation: ELISA stands for enzyme-linked immunosorbent assay.

Assay [2] concerns TIFA knockout (TIFA KO) HEK 293T cells encoding an NF-κB-driven luciferase reporter gene. The assay is described as follows: NF-κB-driven luciferase reporter assay in TIFA knockout HEK 293T cells. The assay is classed as cell-based, human. The conditions noted are these: TIFA KO cells. On the procedure:
FIGS. 10A-B. Effect of chemically synthesised analogues on human embryonic kidney cells (HEK 293T) encoding an NF-κB-driven luciferase reporter gene. NF-κB luciferase activity was measured in wild type (WT) or TIFA knockout (TIFA KO) cells treated with compounds in the presence of digitonin for 20 min, washed, and then cultured in normal medium without the synthetic compounds for 6 hrs after treatment, before luciferase activity was measured. (A) Cells were treated with 10 μg/mL of the indicated compound. Data are means±standard error mean of technical triplicates. (B) Cells were treated with two different molar concentrations of compound (30 μM or 150 μM). Two batches of DD-β-HBP and DD-β-HMP synthesized independently of one another were tested (batch #1 and batch #2) to assess consistency of the chemical synthesis. Data are means±standard error mean of technical triplicates and are representative of three independent experiments. JS-12: D-glycero-D-manno-heptose; JS-2: D-glycero-D-manno-heptose 7-phosphate; JS-7:D-glycero-β-D-manno-heptose-phosphate; JS-8: D-glycero-α-D-manno-heptose-phosphate; JS-9: β-D-mannose phosphate; JS-6:D-glycero-β-D-manno heptose 1,7-biphosphate; JS-5: D-glycero-α-D-manno heptose 1,7-biphosphate.
On the technique in general: In a reporter assay the amount or activity of a reporter protein is the signal.

The subject of assay [3] is human colonic epithelial cells (HCT 116), wild type. The assay is described as follows: IL-8 ELISA in wild type HCT 116 cells after digitonin-permeabilised stimulation. The assay is classed as cell-based. As to conditions: FIG. 11; WT HCT 116; 10, 30 or 50 μg/mL, digitonin 20 min, IL-8 after 6 hours. As for the experimental part: (§1) Wild type (WT) or TIFA knockout (TIFA KO) cells were treated with compounds in the presence of digitonin for 20 min, treatment was removed, cells were washed and then cultured in normal medium without the synthetic compounds for 6 hr before IL-8 levels in culture supernatants were measured by ELISA. (A) Cells were treated with water or 10 μg/mL of the indicated compound. Data are means±standard error mean of technical triplicates. (B) Cells were treated with the NOD1 agonist C12-iE-DAP (39.8 μM) or with two different molar concentrations of compounds (30 μM or 150 μM). Two batches of dd-β-HBP and dd-β-HMP synthesized independently of one another were tested (batch #1 and batch #2) to assess consistency of the chemical synthesis. Data are means±standard error mean of two (150 μM treatment) or three (all other treatments) independent experiments. Nod1 agonist: C12-iE-DAP (20 μg/ml, 39.8 μM); JS-12: D-glycero-D-manno-heptose; JS-2: D-glycero-D-manno-heptose 7-phosphate; JS-7:D-glycero-β-D-manno-heptose-phosphate; JS-8: d-glycero-α-d-manno-heptose-phosphate; JS-9: β-d-mannose phosphate; JS-6:d-glycero-β-d-manno heptose 1,7-biphosphate; JS-5: d-glycero-α-d-manno heptose 1,7-biphosphate.
(§2) FIG. 11. Stimulation of human colonic epithelial cells by compounds/products according to the invention. Human colonic epithelial cells (HCT 116) that were either wild type (WT) or deficient in TIFA protein expression (knockout, KO) were stimulated for 20 minutes in permeabilization buffer (5 μg/mL digitonin) in the presence of water or 10 μg/mL, 30 μg/mL, or 50 μg/mL of indicated synthetic compounds according to the invention. Treatment was removed, cells were washed, and cells were incubated for 6 hours in complete media before IL-8 levels in culture supernatants was measured by ELISA. The results are the mean±standard error of the mean of three technical replicates. JS-10: 7-O-(Aminoethyl)-D-glycero-β-D-manno-heptopyranose phosphate; JS-11: 7-O-(Aminoethyl) -D-glycero-D-manno-heptopyranose; JS-12: D-glycero-D-manno-heptose; Js-13: pH-Rhodo -7-O-(aminoethyl)-D-glycero-β-D-manno-heptopyranose phosphate.
FIG. 13. […] Treatment was removed, cells were washed, and cells were incubated for 6 hours in complete media before IL-8 levels in culture supernatants were measured by ELISA. The results are the mean±standard error of the mean of two (150 μM treatment) or three (all other treatments) independent experiments. #=none detected, JS-10: 7-O-(Aminoethyl)-d-glycero-β-d-manno-heptopyranose phosphate; JS-14: Biotin-7-O-(aminoethyl)-d-glycero-β-d-manno-heptopyranose phosphate, Nod1 agonist: C12-iE-DAP (20 μg/ml, 39.8 μM).
FIG. 16. […] Treatment was removed, cells were washed, and cells were incubated for 6 hours in complete media before IL-8 levels in culture supernatants were measured by ELISA. […]

The subject of assay [4] is HCT 116 cells deficient in TIFA protein expression (TIFA KO). The assay is described as follows: IL-8 ELISA in TIFA knockout HCT 116 cells. The assay is classed as cell-based, human. As to conditions: TIFA KO HCT 116. On the procedure:
as §1, §2
(§3) FIG. 13. Stimulation of human colonic epithelial cells by compounds/products according to the invention. Human colonic epithelial cells (HCT 116) that were either wild type (WT) or deficient in TIFA protein expression (knockout, TIFA KO) were stimulated for 20 minutes in permeabilization buffer (5 μg/mL digitonin) in the presence of water, 20 μg/mL of the Nod1 agonist C12-iE-DAP (39.8 μM, which induces inflammation in a TIFA-independent manner) or 30 μM or 150 μM of synthetic compound according to the invention. Treatment was removed, cells were washed, and cells were incubated for 6 hours in complete media before IL-8 levels in culture supernatants were measured by ELISA. The results are the mean±standard error of the mean of two (150 μM treatment) or three (all other treatments) independent experiments. #=none detected, JS-10: 7-O-(Aminoethyl)-d-glycero-β-d-manno-heptopyranose phosphate; JS-14: Biotin-7-O-(aminoethyl)-d-glycero-β-d-manno-heptopyranose phosphate, Nod1 agonist: C12-iE-DAP (20 μg/ml, 39.8 μM).
as §3, with “16.” for “13.”, “of” for “of the mean of two (150 μM treatment) or”, “technical replicates. […]” for “(all other treatments) independent experiments. #=none detected, JS-10: 7-O-(Aminoethyl)-d-glycero-β-d-manno-heptopyranose phosphate; JS-14: Biotin-7-O-(aminoethyl)-d-glycero-β-d-manno-heptopyranose phosphate, Nod1 agonist: C12-iE-DAP (20 μg/ml, 39.8 μM).”

With `NCCOC[C@@H](O)C1O[C@@H](OP(=O)([O-])[O-])C(O)[C@@H](O)[C@@H]1O.[Na+].[Na+]` (stereo partly drawn) [JS-10a, 7-O-(Aminoethyl)-D-glycero-β-D-manno-heptopyranose phosphate], the figures for the “inflammatory response (IL-8 in culture supernatant)” value in assay [1] and in assay [3] were “stimulate an inflammatory response” and “modest inflammatory response”, respectively. In addition, the “activity in TIFA KO cells (NF-κB luciferase), TIFA dependence” value in assay [2] (FIG. 12, 10, 30 or 50 μg/mL) is on record as “relative absence of activity”; in assay [2] (FIG. 14, 30 μM or 150 μM), “relative absence of activity”. Moreover, the “activity in TIFA KO cells (IL-8), TIFA dependence” value in assay [4] (FIG. 11, 10, 30 or 50 μg/mL) was “relative absence of activity”; in assay [4] (FIG. 13, 30 μM or 150 μM (Nod1 agonist 39.8 μM)), “relative absence of activity”.
